Measured values from patent US6911194B2, “Skin preparation” (PhotoCure ASA, priority 2000, dated 2005).
Blank lines part the entries; values can stand above or below the compound they belong to.

How the values were obtained:
[1] = system: human skin; assay: Erythema on human hands after topical cream and blacklight exposure (Example 2); type: in vivo; settings: 20% in Unguentum Merck cream, 5 hours on hands, blacklight 350-400 nm for 5 min or 1 min
Protocol: A high concentration of ALA and ALA-methyl ester (20%, Sigma) in a cream (Unguentum Merck) was applied to a circular area of 1 cm diameter for 5 hours on both hands of a person, FIGS. 1(A, B). A means ALA, M means ALA-methyl ester. The areas of application are shown by the dotted circles on the figure. The cream with the drugs were carefully washed away and the areas were exposed to ordinary blacklight from a fluorescence tube. The wavelengths of the light fall within the region 350-400 nm, FIG. 2. An exposure of 5 minutes was given to the left hand and an exposure of 1 minute was given to the right hand.

[2] = system: human skin; assay: Erythema and pigmentation on human forearm after topical cream and black light (Example 4, Experiment B); type: in vivo; settings: for erythema: high doses: drug 20%, light 3 min, cream applied 4 hours
Protocol: ALA and ALA derivatives in cream was applied to different areas on the forearm of a person. Four hours afterwards the cream was removed and the arm was exposed to black light, 380 nm, for 1-5 min. The skin of the arm was examined for two weeks.

[3] = system: Balb/c athymic nude mice; assay: Tissue distribution of PpIX fluorescence after topical application in mice (Example 5); type: in vivo, mouse; settings: 20% cream topical, compared to ALA methyl ester
Protocol: ALA, ALA methyl ester and ALA hexyl ester containing cream was applied locally on the skin surface of hairless mice. Fluorescence intensities were used as indications of the concentration of PpIX on the application site (skin), in remote skin spots, in liver, intestine, lungs, muscle and brain and plasma.
A cream was prepared using 20% (wt/wt) ALA, ALA-Me or ALA-Hex in an ointment (Unguentum, Merck, Darmstadt, Germany). Approximately 0.2 mg of the freshly prepared cream was applied on a single spot of 1 cm diameter on normal skin of each mouse. An adhesive dressing (OpSite Flexigrid, Smith and Nephew Medical, LTD, Hull, England) with a punched hole of 1 cm in diameter was first put on the skin. Then the cream was applied on the skin in the punched hole and covered with another similar dressing. […]
Female Balb/c athymic nude mice were obtained from Bomholt Gaard (Ry, Denmark). At the start of each experiment, they were 7-8 weeks old and weighed 18-25 g. Three mice were housed per cage with autoclaved filter covers in a room with subdued light at constant temperature (24-26° C.) and humidity (30-50%). […]
The method for determining the amounts of PpIX in tissues was described previously (Ma et al., 1998). […] Levels of PpIX in the supernatants were quantitatively determined by recording fluorescence emission spectra of the samples using a Perkin-Elmer (Norwalk, Conn.) LS 50B spectrofluorimeter. […]

[4] = PpIX concentration in plasma after topical application in mice (Example 5); type: in vivo, mouse; settings: 20 hr after topical application of 20% cream
Protocol: A cream was prepared using 20% (wt/wt) ALA, ALA-Me or ALA-Hex in an ointment (Unguentum, Merck, Darmstadt, Germany). Approximately 0.2 mg of the freshly prepared cream was applied on a single spot of 1 cm diameter on normal skin of each mouse. An adhesive dressing (OpSite Flexigrid, Smith and Nephew Medical, LTD, Hull, England) with a punched hole of 1 cm in diameter was first put on the skin. Then the cream was applied on the skin in the punched hole and covered with another similar dressing. 20 hours application time was used.
Female Balb/c athymic nude mice were obtained from Bomholt Gaard (Ry, Denmark). At the start of each experiment, they were 7-8 weeks old and weighed 18-25 g. Three mice were housed per cage with autoclaved filter covers in a room with subdued light at constant temperature (24-26° C.) and humidity (30-50%). Food and bedding were sterilized and the mice were given tap water ad libitum in sterilized bottles. For proper application of the cream, anaesthesia, hypnorm dormicum (approximately 4 ml/kg body weight), was i.p. injected into the mice.
Immediately after mice were killed, whole blood was drawn directly from the right atrium of the heart. The total volume of blood obtained from each mouse was approximately 0.2 ml and was selected in EDTA-treated micro-tubes. The red blood cells were fluorimetrically determined as described above.

[5] = system: forearm skin of a person; assay: Erythema and PpIX fluorescence on forearm skin after topical cream and UVA light (Example 7); type: in vivo, human; settings: for content of PpIX produced in the skin areas (fluorescence emission spectra): 20% cream on forearm; for erythema: 20% cream, UVA black light 5 min two hours after application, observed 24 hours later
Protocol: A cream (Unguentum, Merck) containing 20% ALA, ALA butyl ester and ALA hexyl ester respectively, was applied on three separate areas on the skin of the forearm of a person. Two hours later the skin areas were exposed to UVA light from a black light lamp for 5 min.
The content of PpIX produced in the skin areas was assessed by measuring the fluorescence emission spectra.

[6] = system: naked mice; settings: topical ALA, simulated solar UV radiation; cited from earlier work
[7] = system: skin of nude BALB/c mice; assay: Localization of PpIX fluorescence on skin of nude mice under UV lamp (Example 6)
[8] = system: skin of C3H/Tif hairless mice; assay: Pigmentation of hairless mouse skin after topical drug and red laser light (Example 4, Experiment A); type: in vivo
Protocol: One hour after the application, the mice were exposed to light for 1 min (red laser light, 100 m/Wcm^2, 633 nm). […] The treatment was repeated 10 times within 2 weeks.

[9] = system: SKH1 hairless mouse; assay: Prevention of UV-induced skin cancer by multiple topical ALA-Me PDT sessions (Example 8); type: in vivo
Protocol: The ability of multiple photodynamic therapy (PDT) sessions with topical ALA methylester (ALA-Me) to prevent skin cancer induced by ultraviolet radiation (UV) was studied in the SKH1 hairless mouse. Groups of 20 mice were exposed 5 days per week to UV from FS20 tubes. One group was treated weekly with 8% topical ALA-Me followed 2 hours later by 1.2 J/cm^2 of light from a slide projector, The number, location, and size of skin tumors were registered weekly. Other study groups included: mice treated with 8% ALA-Me and not exposed to light, mice exposed to UV and vehicle, mice exposed to topical ALA-Me and light but not UV, as well as mice exposed to UV with half of their bodies treated with 8% ALA-Me and half of their bodies treated with the vehicle. […] After 26 weeks of UV exposure large tumors (≧4 mm) were present in 14 mice of the UV group as compared to only one mouse in the UV-ALA-Me group.

- erythema [2]: led to erythema
- erythema [5]: significant pronounced erythema
- localization of protoporphyrin IX (PpIX) fluorescence ([7]; 20% cream, photos under UV lamp after 8 hours): localized all over the skin
- site of PpIX production after application on the skin of mice (summary statement) ([7]; applied on the skin of mice): induces PpIX in the whole mouse
Structure (SMILES): NCC(=O)CCC(=O)O [ALA, 5-aminolevulinic acid]
- erythema spreading out from the area of application [1]: circular, covering both the upper and the lower part of the hand
- pigmentation ([2]; 20% ALA, 1 min light (slightly erythemogenic), 2 weeks after light exposure): led to later pigmentation
- pigmentation (melanogenesis) ([2]; one week after a low dose single nonerythemogenic treatment): clearly visible pigmentation (melanogenesis)
- PpIX outside the application site ([3]; 5 hrs application time): significally more PpIX outside the application site
- PpIX outside the application site ([3]; 20 hrs application time): significally more PpIX outside the application site
- concentration in plasma [4]: higher than both ALA methylester and ALA hexylester
- content of PpIX produced in the skin areas (fluorescence emission spectra) [5]: highest concentration of PpIX
- UV induction of skin cancer [6]: photo-induced carcinogenesis was delayed
- skin reaction of exposed areas [6]: erythematous

- erythema [5]: significant but weaker erythema
Structure (SMILES): CCCCOC(=O)CCC(=O)CN [ALA butyl ester]
- content of PpIX produced in the skin areas (fluorescence emission spectra) [5]: smaller

- erythema [5]: significant but weaker erythema
Structure (SMILES): CCCCCCOC(=O)CCC(=O)CN [ALA hexyl ester, 5-aminolevulinic acid hexyl ester]
- content of PpIX produced in the skin areas (fluorescence emission spectra) [5]: smallest

Structure (SMILES): COC(=O)CCC(=O)CN [ALA methyl ester, 5-aminolevulinic acid methyl ester]
- erythema spreading out from the area of application [1]: only in a half-circle in the upper part of the hand
- skin pigmentation ([8]; 1% cream, 1 min red laser light, repeated 10 times within 2 weeks): gradually pigmented
- erythema ([8]; 1% in Unguentum Merck cream, light 1 min (633 nm) one hour after application): No erythema was observed
- erythema [2]: led to erythema
- delay in tumor appearance, half body ALA-Me and half body vehicle ([9]; UV-exposed mice treated on one side with 8% ALA-Me, other side vehicle): observed only on the side treated with ALA-Me
- number of mice with large tumors (≧4 mm) ([9]; after 26 weeks of UV exposure, groups of 20 mice): one
- protoporphyrin IX accumulation in tumors versus adjacent UV exposed skin and normal skin ([9]; in vivo fluorescence spectroscopy and fluorescence microscopy at the time of light exposure): preferential accumulation of protoporhyrin IX in tumors
- mortality or morbidity ([9]; topical ALA-Me-PDT): without increasing mortality or morbidity
- time when the first tumor appeared ([9]; weekly 8% topical ALA-Me plus 1.2 J/cm^2 light, compared to mice only exposed to UV): significant delay
